These results are taken from ChEMBL document CHEMBL1154499 (Bioorg Med Chem Lett, 2008).

pEC50, pIC50: −log10 of the molar value. Where only a bound is given, the exact number is not on record here.

In experiment [1] the target is T1, Transcriptional activator protein TraR (Agrobacterium tumefaciens, UniProt P33905).
T1 sequence (P33905 whole entry): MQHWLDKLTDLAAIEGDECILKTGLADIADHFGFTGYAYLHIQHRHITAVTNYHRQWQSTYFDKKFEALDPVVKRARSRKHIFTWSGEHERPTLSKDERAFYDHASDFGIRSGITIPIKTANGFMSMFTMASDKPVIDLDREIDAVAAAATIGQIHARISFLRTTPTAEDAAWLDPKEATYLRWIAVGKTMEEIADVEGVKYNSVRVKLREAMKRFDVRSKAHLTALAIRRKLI
Briefly: Antagonist activity at Agrobacterium tumefaciens WCF47 TraR receptor assessed as inhibition of OOHL-induced response by beta-galctosidase reporter gene assay. For orientation: A reporter such as luciferase makes a cellular process visible.

In experiment [2] the target is T2, Transcriptional activator protein LuxR (Vibrio fischeri (strain ATCC 700601 / ES114), UniProt P35327).
T2 sequence (P35327 whole entry): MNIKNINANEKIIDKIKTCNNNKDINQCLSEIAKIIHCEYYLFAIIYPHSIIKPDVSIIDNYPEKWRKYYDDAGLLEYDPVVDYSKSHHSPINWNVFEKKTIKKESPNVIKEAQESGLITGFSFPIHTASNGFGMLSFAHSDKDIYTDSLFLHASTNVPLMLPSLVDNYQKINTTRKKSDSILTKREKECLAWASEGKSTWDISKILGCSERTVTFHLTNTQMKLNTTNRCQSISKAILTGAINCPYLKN
Briefly: (§1) Antagonist activity at Vibrio fischeri ES114 LuxR receptor assessed as inhibition of OHHL-induced response by luciferase reporter gene assay. It counts as functional, Aliivibrio fischeri.

The nature of experiment [3]: (§2) Antagonist activity at Escherichia coli DH5alpha LasR receptor assessed as inhibition of OdDHL-induced response by beta-galctosidase reporter gene assay. The format is functional.
A short description of experiment [4]: Agonist activity at Escherichia coli DH5alpha LasR receptor by beta-galctosidase reporter gene assay. It counts as functional.
Experiment [5] relates to Escherichia coli. The description is as §2. It counts as functional. Particulars: dose or concentration not given here.
The target of experiment [6] is T3, Transcriptional activator protein LuxR (Vibrio fischeri (strain ATCC 700601 / ES114)) (UniProt P35327).
T3 sequence (whole entry): T2 sequence (P35327 whole entry)
The description is as §1. The format is functional. To be noted: Aliivibrio fischeri, concentration not given here.

Experiment [7] relates to Escherichia coli. Briefly: Agonist activity at Escherichia coli DH5alpha LasR receptor at 100 uM by beta-galctosidase reporter gene assay relative to OdDHL. The format is functional.
In experiment [8] the target is T3, Transcriptional activator protein LuxR (Vibrio fischeri (strain ATCC 700601 / ES114)). The experiment is described as follows: Agonist activity at Vibrio fischeri ES114 LuxR receptor at 100 uM by luciferase reporter gene assay relative to OHHL. The format is functional. Particulars: Aliivibrio fischeri.

As a reminder, the pIC50 is −log10 of the IC50, conventionally taken in molar units. The pEC50 is the EC50 on a negative log10 scale, so that one unit is a factor of ten. Lower therefore signals a high EC50. The term inhibition denotes how much of the control response was suppressed.

In the case of `O=C(CCc1ccc(I)cc1)N[C@H]1CCOC1=O`, the pIC50 in experiment [1] was 5.68; in experiment [2], 6.20. Regarding `O=C(CCc1ccc2c(c1)OCO2)N[C@H]1CCOC1=O`, the pIC50 in experiment [3] was 5.47. Take `O=C(COc1ccc(Cl)cc1)N[C@H]1CCOC1=O`: the results for the pIC50 in experiment [1] and in experiment [3] were 6.21 and 5.33, respectively. On to `O=C(CCc1ccc(F)cc1)N[C@H]1CCOC1=O`, for which the results for the pIC50 in experiment [3] and in experiment [2] were 4.92 and 5.57, respectively. In experiment [4], `CCCCCC(=O)CC(=O)N[C@H]1CCOC1=O` had a pEC50 below 5.00. Take `Cc1cccc(CCC(=O)N[C@H]2CCOC2=O)c1`: the results for the pIC50 in experiment [3] and in experiment [2] were 5.05 and 5.68, respectively. The like results for `O=C(CCc1cccc(Br)c1)N[C@H]1CCOC1=O` were, in that order, 5.48 and 6.28. Consider `CSc1ccc(CCC(=O)N[C@H]2CCOC2=O)cc1`, for which the pIC50 in experiment [1] is 5.96; in experiment [2] it was 5.77. In the case of `O=C(COc1ccc(F)cc1)N[C@H]1CCOC1=O`, the pIC50 in experiment [1] is 5.57. Regarding `CCCCCCCCCC(=O)CC(=O)N[C@H]1CCOC1=O`, the negative logarithm of the EC50 (pEC50) in experiment [4] was 8.00. `O=C(COc1ccc(C(F)(F)F)cc1)N[C@H]1CCOC1=O`: the pIC50 in experiment [1] was 5.80. In the case of `COc1ccc(CCC(=O)N[C@H]2CCOC2=O)cc1`, the pIC50 in experiment [3] was 5.17. For the compound `O=C(COc1ccc(I)cc1)N[C@H]1CCOC1=O`, the pIC50 in experiment [1] is 6.36; in experiment [3], 5.70; in experiment [2] it was 5.72. Moreover, the inhibition with Escherichia coli [5] amounted to 63%. In the case of `O=C(COc1ccc([N+](=O)[O-])cc1)N[C@H]1CCOC1=O`, in experiment [1], the pIC50 was 6.54.

Regarding `O=C(Cc1cccc([N+](=O)[O-])c1)N[C@H]1CCOC1=O`, in experiment [3], the pIC50 was 6.21. Still for that read-out and setting: as for `O=C(CCc1ccc(Br)cc1)N[C@H]1CCOC1=O`, the figure is 6.47. For the compound `O=C(CCc1ccc(Cl)cc1)N[C@H]1CCOC1=O`, the pIC50 is 5.48 in experiment [1], 5.66 in experiment [3] and 6.01 in experiment [2]. `O=C(Cc1ccc(Cl)c(Cl)c1)N[C@H]1CCOC1=O`: the pIC50 in experiment [1] was 5.62.

For the compound `O=C(Cc1ccc2ccccc2c1)N[C@H]1CCOC1=O`, the pIC50 in experiment [1] was 5.38; in experiment [2], 6.03. In the case of `O=C(Cc1cccc2ccccc12)N[C@H]1CCOC1=O`, the pIC50 in experiment [2] is 5.89.

Turning to `Cc1ccc(CCC(=O)N[C@H]2CCOC2=O)cc1`, the negative logarithm of the IC50 (pIC50) was 5.37 in experiment [3] and 5.66 in experiment [2]. In the case of `O=C(CCc1cccc([N+](=O)[O-])c1)N[C@H]1CCOC1=O`, the negative logarithm of the IC50 (pIC50) in experiment [3] was 5.47; in experiment [2], 6.06. `O=C(Cc1cccc(I)c1)N[C@H]1CCOC1=O`: in experiment [3], the pIC50 was 5.33. As for `COc1cccc(CC(=O)N[C@H]2CCOC2=O)c1`, the inhibition in experiment [6] amounted to 85%. Moreover, the negative logarithm of the IC50 (pIC50) in experiment [2] was 5.60.

In the case of `O=C(Cc1cccc(C(F)(F)F)c1)N[C@H]1CCOC1=O`, the pIC50 in experiment [2] was 5.85. As for `O=C(COc1cccc([N+](=O)[O-])c1)N[C@H]1CCOC1=O`, the pIC50 in experiment [2] is 5.62. With `O=C(Cc1ccc(I)cc1)N[C@H]1CCOC1=O`, the pIC50 in experiment [1] was 5.90; in experiment [3], 5.76. In the case of `O=C(CCc1ccc(C(F)(F)F)cc1)N[C@H]1CCOC1=O`, the pIC50 in experiment [1] is 6.68; in experiment [2], 5.66. Besides, the pEC50 in experiment [4] is below 5.00.

For the compound `Cc1cccc(OCC(=O)N[C@H]2CCOC2=O)c1`, the pIC50 in experiment [1] is 5.96; in experiment [3] it was 5.11. With `CSc1ccc(CC(=O)N[C@H]2CCOC2=O)cc1`, the pIC50 in experiment [1] is 5.08; in experiment [2], 5.68.

Turning to `Cc1ccc(OCC(=O)N[C@H]2CCOC2=O)cc1`, the pIC50 in experiment [1] was 5.74. Regarding `CSc1cccc(CC(=O)N[C@H]2CCOC2=O)c1`, the negative logarithm of the IC50 (pIC50) in experiment [2] was 5.82.

As for `O=C(Cc1ccc(SC(F)(F)F)cc1)N[C@H]1CCOC1=O`, the results for the pIC50 in experiment [1] and in experiment [2] were 5.33 and 5.89, respectively. This compound also had an Activity in the experiment with Escherichia coli [7] of 65%. On to `O=C(CCc1cccc(C(F)(F)F)c1)N[C@H]1CCOC1=O`, for which, in experiment [2], the negative logarithm of the IC50 (pIC50) is 6.30.

On to `N#Cc1cccc(CC(=O)N[C@H]2CCOC2=O)c1`, for which the Activity in experiment [8] is 75%. As for `COc1ccc(OCC(=O)N[C@H]2CCOC2=O)cc1`, the pIC50 in experiment [1] is 5.37. With `O=C(Cc1ccc(F)c(C(F)(F)F)c1)N[C@H]1CCOC1=O`, the pIC50 in experiment [2] was 6.00. With `O=C(Cc1ccc([N+](=O)[O-])cc1)N[C@H]1CCOC1=O`, the figures for the negative-log IC50 (pIC50) in experiment [1] and in experiment [2] were 5.65 and 6.02, respectively. For the compound `O=C(COc1ccc(Br)cc1)N[C@H]1CCOC1=O`, the pIC50 in experiment [1] is 6.29; in experiment [3], 5.68; in experiment [2], 5.52. Also, in the experiment with Escherichia coli [5], the inhibition amounted to 67%. As to `O=C(CCc1cccc(I)c1)N[C@H]1CCOC1=O`, the results for the pIC50 in experiment [3] and in experiment [2] were 5.74 and 6.41, respectively. In experiment [4], `CCCC(=O)CC(=O)N[C@H]1CCOC1=O` showed a pEC50 below 5.00. Take `O=C(Cc1cc(C(F)(F)F)cc(C(F)(F)F)c1)N[C@H]1CCOC1=O`: the Activity in experiment [8] came to 70%. Also, the pEC50 in experiment [4] was 5.20. Consider `Cc1cccc(CC(=O)N[C@H]2CCOC2=O)c1`, for which, in experiment [6], the inhibition was determined as 91%. In addition, the pIC50 in experiment [2] was 5.70. The compound `O=C(COc1ccc(OC(F)(F)F)cc1)N[C@H]1CCOC1=O` gave a pEC50 in experiment [4] of 5.20. Moreover, in the experiment on Escherichia coli [7], the Activity amounted to 30%. Regarding `O=C(CCc1ccc([N+](=O)[O-])cc1)N[C@H]1CCOC1=O`, the negative logarithm of the IC50 (pIC50) in experiment [1] is 5.80; in experiment [3] it was 5.52; in experiment [2], 6.00. The inhibition in the experiment with Escherichia coli [5] worked out at 67%.
